The values below come from ChEMBL document CHEMBL3758163, “Extended structure-activity study of thienopyrimidine-based EGFR inhibitors with evaluation of drug-like properties” (Eur J Med Chem, 2016).

SMILES strings stand for the structures.

Vascular endothelial growth factor receptor 3 (Homo sapiens), sequence (P35916 whole entry): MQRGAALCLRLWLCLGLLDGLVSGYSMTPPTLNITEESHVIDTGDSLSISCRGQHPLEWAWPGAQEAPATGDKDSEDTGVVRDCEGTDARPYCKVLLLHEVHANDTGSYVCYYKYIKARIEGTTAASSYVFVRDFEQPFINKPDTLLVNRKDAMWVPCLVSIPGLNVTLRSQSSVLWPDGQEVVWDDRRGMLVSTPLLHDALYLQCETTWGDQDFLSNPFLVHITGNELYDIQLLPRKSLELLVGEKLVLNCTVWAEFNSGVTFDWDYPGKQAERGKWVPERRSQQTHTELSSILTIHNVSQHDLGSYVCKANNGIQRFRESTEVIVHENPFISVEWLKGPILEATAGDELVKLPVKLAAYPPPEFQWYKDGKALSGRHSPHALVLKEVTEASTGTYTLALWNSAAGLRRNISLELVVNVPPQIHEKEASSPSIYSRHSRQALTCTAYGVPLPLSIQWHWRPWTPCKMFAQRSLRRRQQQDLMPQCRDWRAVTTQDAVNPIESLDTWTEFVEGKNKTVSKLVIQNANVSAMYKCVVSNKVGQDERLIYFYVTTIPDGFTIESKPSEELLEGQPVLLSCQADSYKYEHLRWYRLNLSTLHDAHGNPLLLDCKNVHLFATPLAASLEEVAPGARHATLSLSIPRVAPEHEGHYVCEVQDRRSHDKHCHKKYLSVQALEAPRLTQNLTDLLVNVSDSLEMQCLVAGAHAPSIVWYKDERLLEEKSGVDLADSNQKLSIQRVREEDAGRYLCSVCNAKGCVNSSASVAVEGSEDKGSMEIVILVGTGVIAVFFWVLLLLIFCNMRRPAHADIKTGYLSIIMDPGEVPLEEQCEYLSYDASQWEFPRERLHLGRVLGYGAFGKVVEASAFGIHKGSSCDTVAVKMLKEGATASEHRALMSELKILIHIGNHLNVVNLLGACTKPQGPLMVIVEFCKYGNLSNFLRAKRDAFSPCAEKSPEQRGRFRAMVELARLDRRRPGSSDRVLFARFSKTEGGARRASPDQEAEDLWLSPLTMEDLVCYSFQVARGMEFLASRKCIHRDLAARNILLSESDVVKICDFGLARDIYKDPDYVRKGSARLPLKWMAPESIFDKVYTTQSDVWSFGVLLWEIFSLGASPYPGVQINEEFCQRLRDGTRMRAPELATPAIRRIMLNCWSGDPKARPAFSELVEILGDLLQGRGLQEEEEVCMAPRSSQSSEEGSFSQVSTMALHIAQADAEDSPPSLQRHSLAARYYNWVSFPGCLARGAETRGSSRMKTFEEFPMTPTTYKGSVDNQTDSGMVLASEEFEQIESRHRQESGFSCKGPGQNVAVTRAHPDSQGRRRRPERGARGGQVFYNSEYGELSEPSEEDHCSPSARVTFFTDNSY

The first assay concerns the target T1, Aurora kinase A (Homo sapiens) (UniProt O14965).
T1 sequence (whole entry): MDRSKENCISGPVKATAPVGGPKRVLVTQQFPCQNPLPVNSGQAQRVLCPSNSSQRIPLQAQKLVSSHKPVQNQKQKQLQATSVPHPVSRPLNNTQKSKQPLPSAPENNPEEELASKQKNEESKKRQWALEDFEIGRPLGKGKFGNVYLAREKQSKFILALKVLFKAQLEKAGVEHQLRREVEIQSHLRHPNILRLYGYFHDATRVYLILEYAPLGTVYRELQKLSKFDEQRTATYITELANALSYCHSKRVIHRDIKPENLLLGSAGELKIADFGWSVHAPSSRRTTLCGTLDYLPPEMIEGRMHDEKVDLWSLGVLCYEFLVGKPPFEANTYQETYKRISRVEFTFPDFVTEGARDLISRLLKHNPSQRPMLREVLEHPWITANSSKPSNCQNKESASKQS
Kind of assay: Inhibition of AURKA (unknown origin) at 500 nM.
Turning to `COc1cc(C(N)=O)ccc1-c1cc2c(N[C@H](CO)c3ccccc3)ncnc2s1`, the inhibition – broadly, the relative decrease from the control value, in per cent – was 6%.
Take `CN(C)CCNC(=O)c1ccc(-c2cc3c(N[C@H](CO)c4ccccc4)ncnc3s2)cc1`: the inhibition came out at 6%.
The same measure, in the same setting: with `C#Cc1cccc(Nc2ncnc3sc(-c4ccc(CO)cc4OC)cc23)c1` the figure was 14%.

For another assay, the target named is Tyrosine-protein kinase Fyn (Homo sapiens) (UniProt P06241). Kind of assay: Inhibition of FYN (unknown origin) at 500 nM.
Tyrosine-protein kinase Fyn (Homo sapiens), sequence (P06241 2-537 limits assumed): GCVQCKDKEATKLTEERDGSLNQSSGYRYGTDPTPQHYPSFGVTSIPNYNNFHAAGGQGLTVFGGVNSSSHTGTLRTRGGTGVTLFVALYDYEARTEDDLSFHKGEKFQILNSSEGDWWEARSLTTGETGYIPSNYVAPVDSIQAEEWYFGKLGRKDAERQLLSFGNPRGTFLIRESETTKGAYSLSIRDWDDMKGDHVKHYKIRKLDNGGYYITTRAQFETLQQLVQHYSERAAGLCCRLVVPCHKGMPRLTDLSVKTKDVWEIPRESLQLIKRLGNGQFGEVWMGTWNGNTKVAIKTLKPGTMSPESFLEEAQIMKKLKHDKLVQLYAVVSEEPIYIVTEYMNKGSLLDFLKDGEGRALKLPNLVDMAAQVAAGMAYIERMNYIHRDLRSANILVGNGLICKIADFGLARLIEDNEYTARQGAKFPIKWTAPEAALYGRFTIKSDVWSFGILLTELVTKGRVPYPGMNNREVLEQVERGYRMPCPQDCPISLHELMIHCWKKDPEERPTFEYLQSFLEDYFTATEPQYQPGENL
With `COc1cc(C(N)=O)ccc1-c1cc2c(N[C@H](CO)c3ccccc3)ncnc2s1`, the inhibition stood at 16%.
The same measure, in the same setting: as for `CN(C)CCNC(=O)c1ccc(-c2cc3c(N[C@H](CO)c4ccccc4)ncnc3s2)cc1`, the figure is 23%; as for `C#Cc1cccc(Nc2ncnc3sc(-c4ccc(CO)cc4OC)cc23)c1`, 0%.

Another assay deals with Tyrosine-protein kinase Lyn (Homo sapiens) (UniProt P07948). Kind of assay: Inhibition of LYN B (unknown origin) at 500 nM.
Tyrosine-protein kinase Lyn (Homo sapiens), sequence (P07948 2-512 limits assumed): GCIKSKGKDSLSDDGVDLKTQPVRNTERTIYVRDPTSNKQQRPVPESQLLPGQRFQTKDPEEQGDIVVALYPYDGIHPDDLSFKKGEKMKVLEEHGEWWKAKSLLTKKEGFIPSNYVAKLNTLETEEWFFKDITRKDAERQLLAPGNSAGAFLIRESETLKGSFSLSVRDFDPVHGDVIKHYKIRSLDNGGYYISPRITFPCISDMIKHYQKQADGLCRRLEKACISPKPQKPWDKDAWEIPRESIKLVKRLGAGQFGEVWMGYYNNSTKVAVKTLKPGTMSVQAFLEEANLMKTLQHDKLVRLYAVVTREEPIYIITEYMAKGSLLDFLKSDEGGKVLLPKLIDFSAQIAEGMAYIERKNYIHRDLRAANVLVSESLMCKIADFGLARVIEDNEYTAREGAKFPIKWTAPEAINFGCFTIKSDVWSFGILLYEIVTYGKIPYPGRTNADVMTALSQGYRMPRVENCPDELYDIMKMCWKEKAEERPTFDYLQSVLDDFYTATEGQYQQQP
As to `COc1cc(C(N)=O)ccc1-c1cc2c(N[C@H](CO)c3ccccc3)ncnc2s1`, the inhibition was found to be 57%.
Still for that read-out and setting: with `CN(C)CCNC(=O)c1ccc(-c2cc3c(N[C@H](CO)c4ccccc4)ncnc3s2)cc1` the figure was 37%; with `C#Cc1cccc(Nc2ncnc3sc(-c4ccc(CO)cc4OC)cc23)c1`, 9%.

A further assay has as its target T2, Serine/threonine-protein kinase Nek1 (Homo sapiens) (UniProt Q96PY6).
T2 sequence (whole entry): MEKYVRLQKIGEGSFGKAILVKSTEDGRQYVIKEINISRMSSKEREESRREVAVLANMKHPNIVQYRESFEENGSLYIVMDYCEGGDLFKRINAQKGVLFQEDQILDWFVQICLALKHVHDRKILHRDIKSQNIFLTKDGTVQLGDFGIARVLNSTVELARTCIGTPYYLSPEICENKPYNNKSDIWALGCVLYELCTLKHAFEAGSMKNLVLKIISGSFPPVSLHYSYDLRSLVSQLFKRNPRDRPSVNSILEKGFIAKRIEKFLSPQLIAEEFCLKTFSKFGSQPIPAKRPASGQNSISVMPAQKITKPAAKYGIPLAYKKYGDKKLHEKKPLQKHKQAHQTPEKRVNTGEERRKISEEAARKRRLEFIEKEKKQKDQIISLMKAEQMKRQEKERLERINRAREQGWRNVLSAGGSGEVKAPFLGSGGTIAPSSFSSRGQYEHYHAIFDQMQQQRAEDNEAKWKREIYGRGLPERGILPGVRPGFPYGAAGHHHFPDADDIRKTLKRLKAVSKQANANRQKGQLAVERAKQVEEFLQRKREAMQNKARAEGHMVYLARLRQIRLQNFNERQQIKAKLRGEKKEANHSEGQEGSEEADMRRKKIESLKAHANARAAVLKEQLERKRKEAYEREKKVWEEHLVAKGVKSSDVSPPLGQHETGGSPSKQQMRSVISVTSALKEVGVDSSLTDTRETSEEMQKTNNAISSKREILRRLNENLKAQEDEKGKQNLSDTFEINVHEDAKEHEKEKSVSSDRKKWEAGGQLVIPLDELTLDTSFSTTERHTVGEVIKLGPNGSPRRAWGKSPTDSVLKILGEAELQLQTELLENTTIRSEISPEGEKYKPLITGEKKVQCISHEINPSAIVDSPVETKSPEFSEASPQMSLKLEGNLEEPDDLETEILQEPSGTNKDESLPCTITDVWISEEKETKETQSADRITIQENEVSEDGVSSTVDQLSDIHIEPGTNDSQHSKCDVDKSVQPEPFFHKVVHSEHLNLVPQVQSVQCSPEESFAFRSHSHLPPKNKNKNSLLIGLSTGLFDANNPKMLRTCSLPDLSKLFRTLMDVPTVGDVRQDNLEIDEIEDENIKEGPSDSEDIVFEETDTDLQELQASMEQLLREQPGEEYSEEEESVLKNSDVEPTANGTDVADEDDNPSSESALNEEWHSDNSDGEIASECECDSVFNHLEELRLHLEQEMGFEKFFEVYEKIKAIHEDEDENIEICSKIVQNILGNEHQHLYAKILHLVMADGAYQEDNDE
Kind of assay: Inhibition of NEK1 (unknown origin) at 500 nM.
With `COc1cc(C(N)=O)ccc1-c1cc2c(N[C@H](CO)c3ccccc3)ncnc2s1`, the inhibition was found to be 3%.
Same read-out and setting: with `C#Cc1cccc(Nc2ncnc3sc(-c4ccc(CO)cc4OC)cc23)c1` the figure was -6%.

The target in the next assay is Hepatocyte growth factor receptor (Homo sapiens) (UniProt P08581). Kind of assay: Inhibition of MET (unknown origin) at 500 nM.
In the case of `COc1cc(C(N)=O)ccc1-c1cc2c(N[C@H](CO)c3ccccc3)ncnc2s1`, the inhibition is -5%.
The same measure, in the same setting: with `CN(C)CCNC(=O)c1ccc(-c2cc3c(N[C@H](CO)c4ccccc4)ncnc3s2)cc1` the figure was -3%.

A further assay has as its target Tyrosine-protein kinase Lyn (Homo sapiens) (UniProt P07948). Kind of assay: Inhibition of LYN A (unknown origin) at 500 nM.
Regarding `COc1cc(C(N)=O)ccc1-c1cc2c(N[C@H](CO)c3ccccc3)ncnc2s1`, the inhibition amounted to 47%.
Same read-out and setting: as for `CN(C)CCNC(=O)c1ccc(-c2cc3c(N[C@H](CO)c4ccccc4)ncnc3s2)cc1`, the figure is 31%; as for `C#Cc1cccc(Nc2ncnc3sc(-c4ccc(CO)cc4OC)cc23)c1`, 13%.

A further assay deals with Tyrosine-protein kinase SYK (Homo sapiens) (UniProt P43405). Kind of assay: Inhibition of SYK (unknown origin) at 500 nM.
In the case of `COc1cc(C(N)=O)ccc1-c1cc2c(N[C@H](CO)c3ccccc3)ncnc2s1`, the inhibition came to 17%.
On the same count and under the same terms, as for `CN(C)CCNC(=O)c1ccc(-c2cc3c(N[C@H](CO)c4ccccc4)ncnc3s2)cc1`, the figure is 23%.
On to `C#Cc1cccc(Nc2ncnc3sc(-c4ccc(CO)cc4OC)cc23)c1`, for which the inhibition worked out at 16%.

Another assay concerns the target Vascular endothelial growth factor receptor 3 (Homo sapiens) (UniProt P35916). Kind of assay: Inhibition of FLT4 (unknown origin) at 500 nM.
For `COc1cc(C(N)=O)ccc1-c1cc2c(N[C@H](CO)c3ccccc3)ncnc2s1`, the inhibition worked out at 13%.
The same measure, in the same setting: as for `CN(C)CCNC(=O)c1ccc(-c2cc3c(N[C@H](CO)c4ccccc4)ncnc3s2)cc1`, the figure is 4%; as for `C#Cc1cccc(Nc2ncnc3sc(-c4ccc(CO)cc4OC)cc23)c1`, 7%.

The target of another assay is Mast/stem cell growth factor receptor Kit (Homo sapiens) (UniProt P10721). Kind of assay: Inhibition of KIT (unknown origin) at 500 nM.
For the compound `COc1cc(C(N)=O)ccc1-c1cc2c(N[C@H](CO)c3ccccc3)ncnc2s1`, the inhibition was -9%.
Consider `CN(C)CCNC(=O)c1ccc(-c2cc3c(N[C@H](CO)c4ccccc4)ncnc3s2)cc1`, for which the inhibition stood at 1%.

A further assay deals with T3, Inhibitor of nuclear factor kappa-B kinase subunit beta (Homo sapiens) (UniProt O14920).
T3 sequence (whole entry): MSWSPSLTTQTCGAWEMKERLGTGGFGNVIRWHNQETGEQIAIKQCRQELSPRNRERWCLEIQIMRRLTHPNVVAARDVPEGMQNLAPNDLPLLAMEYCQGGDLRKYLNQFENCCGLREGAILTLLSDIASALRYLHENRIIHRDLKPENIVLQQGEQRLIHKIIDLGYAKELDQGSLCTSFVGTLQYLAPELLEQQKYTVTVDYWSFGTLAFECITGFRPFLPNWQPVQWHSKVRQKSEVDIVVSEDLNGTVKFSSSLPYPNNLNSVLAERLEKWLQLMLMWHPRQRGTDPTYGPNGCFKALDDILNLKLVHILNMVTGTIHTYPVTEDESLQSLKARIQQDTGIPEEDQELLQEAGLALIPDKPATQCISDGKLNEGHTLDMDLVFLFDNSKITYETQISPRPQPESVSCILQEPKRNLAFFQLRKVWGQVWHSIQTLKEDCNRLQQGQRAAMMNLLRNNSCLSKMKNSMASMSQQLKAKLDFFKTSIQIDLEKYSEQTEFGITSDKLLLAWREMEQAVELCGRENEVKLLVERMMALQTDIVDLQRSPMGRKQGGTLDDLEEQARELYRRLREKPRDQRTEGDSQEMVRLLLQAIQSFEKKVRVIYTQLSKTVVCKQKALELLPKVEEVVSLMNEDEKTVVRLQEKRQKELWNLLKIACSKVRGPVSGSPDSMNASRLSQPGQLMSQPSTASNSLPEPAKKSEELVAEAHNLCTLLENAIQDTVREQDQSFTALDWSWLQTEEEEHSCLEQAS
Kind of assay: Inhibition of IKBKB (unknown origin) at 500 nM.
As for `COc1cc(C(N)=O)ccc1-c1cc2c(N[C@H](CO)c3ccccc3)ncnc2s1`, the inhibition stood at 3%.
Still for that read-out and setting: with `CN(C)CCNC(=O)c1ccc(-c2cc3c(N[C@H](CO)c4ccccc4)ncnc3s2)cc1` the figure was 3%.
Still for that read-out and setting: with `C#Cc1cccc(Nc2ncnc3sc(-c4ccc(CO)cc4OC)cc23)c1` the figure was -4%.

For the next assay, the target named is Receptor tyrosine-protein kinase erbB-4 (Homo sapiens) (UniProt Q15303). Kind of assay: Inhibition of ERBB4 (unknown origin) at 500 nM.
Receptor tyrosine-protein kinase erbB-4 (Homo sapiens), sequence (Q15303 whole entry): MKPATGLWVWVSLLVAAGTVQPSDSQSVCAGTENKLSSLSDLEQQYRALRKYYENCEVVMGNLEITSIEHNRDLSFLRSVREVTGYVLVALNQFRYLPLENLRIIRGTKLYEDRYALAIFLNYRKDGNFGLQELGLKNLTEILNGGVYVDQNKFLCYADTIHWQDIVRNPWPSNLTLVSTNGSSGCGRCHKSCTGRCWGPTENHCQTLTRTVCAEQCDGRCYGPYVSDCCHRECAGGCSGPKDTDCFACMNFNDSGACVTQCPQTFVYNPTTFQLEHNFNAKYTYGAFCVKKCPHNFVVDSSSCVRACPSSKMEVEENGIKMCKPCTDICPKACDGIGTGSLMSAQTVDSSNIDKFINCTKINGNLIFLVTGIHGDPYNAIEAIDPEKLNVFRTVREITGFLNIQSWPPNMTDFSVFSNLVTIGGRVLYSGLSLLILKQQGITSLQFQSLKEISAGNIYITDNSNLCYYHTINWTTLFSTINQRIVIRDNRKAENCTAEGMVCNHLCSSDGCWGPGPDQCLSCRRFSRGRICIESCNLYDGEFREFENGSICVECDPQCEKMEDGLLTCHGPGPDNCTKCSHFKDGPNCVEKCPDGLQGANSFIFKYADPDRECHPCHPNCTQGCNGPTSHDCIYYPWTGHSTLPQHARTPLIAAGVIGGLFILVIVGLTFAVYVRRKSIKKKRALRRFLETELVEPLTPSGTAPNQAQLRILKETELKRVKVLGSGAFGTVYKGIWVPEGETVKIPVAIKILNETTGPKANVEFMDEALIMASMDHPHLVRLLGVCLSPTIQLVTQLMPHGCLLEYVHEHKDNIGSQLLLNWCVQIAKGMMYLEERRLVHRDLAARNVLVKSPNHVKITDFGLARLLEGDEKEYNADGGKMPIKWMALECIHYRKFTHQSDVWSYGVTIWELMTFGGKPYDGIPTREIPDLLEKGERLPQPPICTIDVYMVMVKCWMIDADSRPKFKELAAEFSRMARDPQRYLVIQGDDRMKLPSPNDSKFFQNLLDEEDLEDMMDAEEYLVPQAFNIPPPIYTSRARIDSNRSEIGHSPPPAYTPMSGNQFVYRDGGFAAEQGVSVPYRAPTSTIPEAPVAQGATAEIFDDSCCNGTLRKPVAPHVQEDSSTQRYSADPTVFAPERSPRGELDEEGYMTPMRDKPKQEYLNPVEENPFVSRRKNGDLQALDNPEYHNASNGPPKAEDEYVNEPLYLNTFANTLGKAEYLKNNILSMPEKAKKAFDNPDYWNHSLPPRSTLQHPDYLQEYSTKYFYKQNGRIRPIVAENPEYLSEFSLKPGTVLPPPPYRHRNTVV
With `COc1cc(C(N)=O)ccc1-c1cc2c(N[C@H](CO)c3ccccc3)ncnc2s1`, the inhibition stood at 62%.
Still for that read-out and setting: as for `CN(C)CCNC(=O)c1ccc(-c2cc3c(N[C@H](CO)c4ccccc4)ncnc3s2)cc1`, the figure is 30%.
Take `C#Cc1cccc(Nc2ncnc3sc(-c4ccc(CO)cc4OC)cc23)c1`: the inhibition worked out at 12%.

The target of a further assay is Vascular endothelial growth factor receptor 2 (Homo sapiens) (UniProt P35968). Kind of assay: Inhibition of KDR (unknown origin) at 500 nM.
Vascular endothelial growth factor receptor 2 (Homo sapiens), sequence (P35968 whole entry): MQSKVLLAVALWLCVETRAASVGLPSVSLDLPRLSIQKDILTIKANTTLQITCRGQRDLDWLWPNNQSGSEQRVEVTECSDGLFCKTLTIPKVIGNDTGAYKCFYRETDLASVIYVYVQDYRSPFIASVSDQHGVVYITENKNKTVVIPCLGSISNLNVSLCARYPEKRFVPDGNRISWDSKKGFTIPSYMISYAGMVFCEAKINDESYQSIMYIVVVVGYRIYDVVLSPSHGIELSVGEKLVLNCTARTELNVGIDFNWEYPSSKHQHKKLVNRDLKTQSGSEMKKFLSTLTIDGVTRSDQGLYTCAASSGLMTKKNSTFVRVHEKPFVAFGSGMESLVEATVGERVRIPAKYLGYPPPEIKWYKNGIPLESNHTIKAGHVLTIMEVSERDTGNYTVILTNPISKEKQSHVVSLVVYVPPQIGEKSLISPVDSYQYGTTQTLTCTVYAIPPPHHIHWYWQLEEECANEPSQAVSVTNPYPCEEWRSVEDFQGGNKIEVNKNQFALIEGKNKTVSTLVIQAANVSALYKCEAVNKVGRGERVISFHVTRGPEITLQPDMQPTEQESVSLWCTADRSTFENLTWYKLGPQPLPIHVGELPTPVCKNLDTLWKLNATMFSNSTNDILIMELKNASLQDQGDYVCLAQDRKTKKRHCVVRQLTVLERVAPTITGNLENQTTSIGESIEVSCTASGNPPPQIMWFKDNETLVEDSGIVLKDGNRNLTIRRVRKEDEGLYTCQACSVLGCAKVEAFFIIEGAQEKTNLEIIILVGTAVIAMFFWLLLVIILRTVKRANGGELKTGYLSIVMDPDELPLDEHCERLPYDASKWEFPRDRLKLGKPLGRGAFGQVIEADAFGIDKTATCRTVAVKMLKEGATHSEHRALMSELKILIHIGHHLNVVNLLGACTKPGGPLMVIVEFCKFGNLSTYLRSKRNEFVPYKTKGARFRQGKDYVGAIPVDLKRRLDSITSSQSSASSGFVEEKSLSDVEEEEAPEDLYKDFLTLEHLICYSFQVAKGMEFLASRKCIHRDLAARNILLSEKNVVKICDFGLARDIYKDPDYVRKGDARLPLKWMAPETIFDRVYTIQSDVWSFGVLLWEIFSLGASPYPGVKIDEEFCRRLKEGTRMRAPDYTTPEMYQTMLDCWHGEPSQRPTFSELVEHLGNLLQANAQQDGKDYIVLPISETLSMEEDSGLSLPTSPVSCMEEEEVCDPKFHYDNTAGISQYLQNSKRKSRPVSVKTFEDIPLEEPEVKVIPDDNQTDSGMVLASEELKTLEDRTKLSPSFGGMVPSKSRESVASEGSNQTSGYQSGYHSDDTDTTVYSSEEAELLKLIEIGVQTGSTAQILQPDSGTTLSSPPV
With `COc1cc(C(N)=O)ccc1-c1cc2c(N[C@H](CO)c3ccccc3)ncnc2s1`, the inhibition amounted to 7%.
Still for that read-out and setting: as for `CN(C)CCNC(=O)c1ccc(-c2cc3c(N[C@H](CO)c4ccccc4)ncnc3s2)cc1`, the figure is 10%; as for `C#Cc1cccc(Nc2ncnc3sc(-c4ccc(CO)cc4OC)cc23)c1`, 8%.

In the next assay the target is cAMP-dependent protein kinase catalytic subunit alpha (Homo sapiens) (UniProt P17612). Kind of assay: Inhibition of PRKACA (unknown origin) at 500 nM.
Take `COc1cc(C(N)=O)ccc1-c1cc2c(N[C@H](CO)c3ccccc3)ncnc2s1`: the inhibition is -5%.
With `CN(C)CCNC(=O)c1ccc(-c2cc3c(N[C@H](CO)c4ccccc4)ncnc3s2)cc1`, the inhibition was -5%.
On the same count and under the same terms, as for `C#Cc1cccc(Nc2ncnc3sc(-c4ccc(CO)cc4OC)cc23)c1`, the figure is -1%.
